Experimental data from US20030108556A1 (priority 2001, published 2003).
“Also recorded” adds a separate entry of the source. Ends that are not written are not given here.

What was measured:
PA63 heptamer [1] = target: T1, PA63 heptamer (Bacillus anthracis, UniProt P13423)
PA63 heptamer [2] = target: T1, PA63 heptamer; experiment: biochemical; assay type: binding

T1 sequence (P13423 197-764 limits assumed): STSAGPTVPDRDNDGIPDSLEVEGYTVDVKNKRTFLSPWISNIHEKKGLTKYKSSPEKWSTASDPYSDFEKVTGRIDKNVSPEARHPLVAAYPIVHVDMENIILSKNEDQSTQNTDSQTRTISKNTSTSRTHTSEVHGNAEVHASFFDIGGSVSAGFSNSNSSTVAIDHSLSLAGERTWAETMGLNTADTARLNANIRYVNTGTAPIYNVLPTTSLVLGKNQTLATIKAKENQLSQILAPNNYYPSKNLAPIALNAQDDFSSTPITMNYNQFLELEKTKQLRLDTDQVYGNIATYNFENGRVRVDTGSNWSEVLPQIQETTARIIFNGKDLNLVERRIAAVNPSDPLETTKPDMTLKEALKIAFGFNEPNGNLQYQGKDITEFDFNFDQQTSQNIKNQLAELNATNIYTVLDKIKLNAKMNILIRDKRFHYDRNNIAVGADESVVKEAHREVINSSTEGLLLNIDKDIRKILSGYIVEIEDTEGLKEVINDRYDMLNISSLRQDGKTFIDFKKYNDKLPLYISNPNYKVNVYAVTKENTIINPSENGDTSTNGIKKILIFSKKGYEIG

| Substance | properties of phage compared with P1 and P2 (PA63 heptamer [1]) | effect on binding of radiolabeled LFN to PA63 on CHO cells (PA63 heptamer [2]) | further results |
| --- | --- | --- | --- |
| CWSSFAWYC | showed the same properties as P1 and P2 | – | – |
| HTSTYWWLDGAP | – | – | IC50 (PA63 heptamer [2]): ~150 µM |
| FDLPFTMSTPTP [reference compound] | – | no effect | – |
| HTSTYWWLD | – | all but one, HTSTYWWLD, could prevent; also recorded: could not compete | – |
| HYTYWWL | showed the same properties as P1 and P2 | – | – |
